These results are taken from patent publication US7258999B2, “PTH responsive gene” (Wyeth, priority 2002, dated 2007).

Experiment [1] concerns PAIGB mRNA. The experiment is described as follows: In situ hybridization of PAIGB mRNA in mouse calvariae. Particulars: Swiss Webster mice, 100 μg/kg/day sc, 30 days. It counts as in vivo. The procedure: In situ analysis of PAIGB mRNA expression can be assessed in various animal species including human bone biopsy samples or from mouse, rat, dog bone samples etc., that have been treated with bone forming agents. Swiss Webster mice that have been treated with 100 μg/kg/day PTH 1-34 subcutaneously or 30 days. Mouse calvariae were gently dissected and fixed in 4% paraformaldehyde. Following fixation, the bones were decalcified in TBD-2 decalcifying agent (Shandon Lipshaw, Pittsburgh, Pa.) for 7-8 hrs then dehydrated in graded alcohol. The calvariae was subsequently bisected perpendicular to the sagittal suture through the central portion of the parietal bones parallel to the lambdoidal and coronal sutures and embedded in paraffin (femur and tibia samples are embedded longitudinally in paraffin). Four to six 5 μm-thick representative, non-consecutive step sections were cut for further analysis. Selected sections were stained with hematoxylin and eosin (Shandon Lipshaw, Pittsburgh, Pa.) and adjacent section were used for in situ hybridization. […] The expression of mRNA are evaluated using a Nikon microscope with either bright or dark field.

Experiment [2] has as its system PAIGB expression in U2OS cells. The experiment is described as follows: RT-PCR and real time PCR of PAIGB expression in U2OS cells. Particulars: 1 or 10 nM. It counts as cell-based, human. The procedure:
RNA samples were subject to RT-PCR and Taq-man analysis using probe and primers to PAIGB polynucleotide sequences and GAPDH as well as 18S ribosomal RNA. RT-PCR was done using TaKaRa kit (Panvera, Shiga, Japan) according to manufacturer recommendation. RT reaction was done under following conditions: 30° C. for 10 min, 42° C. for 50 min, 99° C. for 5 min and 4° C. for 5 min. PCR conditions were: 94° C. for 5 min, 35 cycles of 94° C. for 2 min, 62° C. for 30″, 72° C. for 1 min and 30 sec, and 72° C. for 10 min. The PCR products were separated on 1% agarose gel.
Applicants performed multiplex real time PCR (TaqMan) analysis on previously DNAsed samples using gene specific probe and primers and 18S ribosomal RNA probe and primer sets purchased from Applied Biosystem. (Foster City, Calif.) The samples were DNAsed according to the protocol provided by Ambion (DNA-free kit). TaqMan probe and primers for PAIGB was identify using Primer Express computer program. The sequence for rat PAIGB TaqMan probe was 6FAM-5′[…] (SEQ ID NO: 16) forward and reverse primers were 5′[…] 3′ (SEQ ID NO:17) and 5′ […] 3′ (SEQ ID NO:18) respectively. The final concentrations for probes were 500 nM and 40 nM for PAIGB and 18S ribosomal RNA or GAPDH respectively. […]
In general terms: In qPCR the cycle at which signal appears reflects the starting amount.

Turning to human PTH (1-34), in experiment [1], the “PAIGB mRNA expression in calvariae (in situ hybridization)” value was “induced in osteoblastic cells adjacent to the bone surface in the periosteum”. Also, the “PAIGB expression in human U2OS osteoblastic cells” value in experiment [2] is “induction”.
